In paper PMC7482398 (Molecular Pharmaceutics, 2020):
Like-named read-outs stand apart in the source and are kept apart here.

Assays:
Escherichia coli = Escherichia coli mutation test; cited from earlier work
Salmonella typhimurium = Salmonella typhimurium mutation test; cited from earlier work
Sprague Dawley rats = details: male and female Sprague Dawley rats, 2.5 mg/kg body weight, 14 days of observation; cited from earlier work
[1] = test system: P-gp function at the blood–brain barrier; details: rhesus monkey, in vivo
P-gp = details: cited from earlier work
P-gp function at the BBB = details: cited from earlier work
[2] = rhesus monkey, in vivo
[3] = rats, 30 min after tracer injection; cited from earlier work
[4] = cited from earlier work
[5] = after P-gp inhibition, tariquidar 8 mg/kg i.v. 30 min before PET

SMILES	mutagenic activity (Escherichia coli)	mutagenic activity (Salmonella typhimurium)	toxicity (Sprague Dawley rats)	change in K1 between baseline and after-inhibition [1]	increase of whole brain VT from 10 min to 91-min data [1] [%]	VT (brain uptake at the baseline) (P-gp; mice and rats, baseline)	transporter selectivity (P-gp vs BCRP) (P-gp; ref Savolainen et al. (2017), 14)	K1 rats (P-gp function at the BBB; [5])	VT rats (P-gp function at the BBB; [5])	K1 rats (P-gp function at the BBB; baseline scans) [mL/mL/min]	VT rats (P-gp function at the BBB; baseline scans)	increase in K1 after tariquidar compared with baseline (P-gp function at the BBB; rats)	increase in VT after tariquidar compared with baseline (P-gp function at the BBB; rats)	whole brain K1 higher in tariquidar-treated rats than in control rats (P-gp function at the BBB; rats) [%]	whole brain VT higher in tariquidar-treated rats than in control rats (P-gp function at the BBB; rats) [%]	plasma radioactivity representing the parent tracer [2] [%]	difference in biological T1/2 and Ke between baseline and after-inhibition scans ([2]; 8 mg/kg)	parent [18F]MC225 still available in plasma [3] [%]	log D [4]
COc1cc2c(cc1OC)CN(CCCC1CCCc3c(OCCF)cccc31)CC2 (stereo not shown) [MC225, 5-(1-(2-fluoroethoxy))-[3-(6,7-dimethoxy-3,4-dihydro-1H-isoquinolin-2-yl)-propyl]-5,6,7,8-tetrahydronaphthalen]	did not reveal any mutagenic activity	did not reveal any mutagenic activity	did not cause toxicity	–	–	–	–	–	–	–	–	–	–	–	–	–	–	–	–
COc1cc2c(cc1OC)CN(CCCC1CCCc3c(OCC[18F])cccc31)CC2 (stereo not shown) [[^18F]MC225]	–	–	–	42–44%	165	6.6–11	selectively transported by P-gp and not by BCRP	0.81	20	0.12	7.7	6–11 fold	2–4 fold	575	159	50	did not find significant differences	24	3.0
